For orientation: IC50 means the concentration at which inhibition is half-maximal.

The assay deals with T1, recombinant EphB4 (Homo sapiens, UniProt P54760).
T1 construct: amino acids 563-987; Swiss-Prot Acc; No. P54760; purchased ProQinase GmbH 0178-0000-3
T1 sequence (P54760 563-987): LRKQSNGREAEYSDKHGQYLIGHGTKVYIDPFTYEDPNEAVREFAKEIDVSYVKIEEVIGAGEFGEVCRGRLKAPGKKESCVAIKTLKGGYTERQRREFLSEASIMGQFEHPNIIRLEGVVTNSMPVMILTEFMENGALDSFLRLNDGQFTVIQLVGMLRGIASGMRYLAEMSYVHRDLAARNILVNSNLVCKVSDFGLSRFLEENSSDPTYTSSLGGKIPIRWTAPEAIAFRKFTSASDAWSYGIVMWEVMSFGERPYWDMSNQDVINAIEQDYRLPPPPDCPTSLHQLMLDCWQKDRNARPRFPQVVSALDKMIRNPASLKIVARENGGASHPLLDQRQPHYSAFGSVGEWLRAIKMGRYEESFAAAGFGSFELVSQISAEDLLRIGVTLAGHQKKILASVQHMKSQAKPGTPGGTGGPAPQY
Nature of the assay: In vitro EphB4 enzyme assay (Alphascreen). Format: biochemical. How it is done: This assay detects inhibitors of EphB4-mediated phosphorylation of a polypeptide substrate using Alphascreen™ luminescence detection technology. Briefly, recombinant EphB4 was incubated with a biotinylated-polypeptide substrate (biotin-poly-GAT) in presence of magnesium-ATP. The reaction was stopped by addition of EDTA, together with streptavidin-coated donor beads which bind the biotin-substrate containing any phosphorylated tyrosine residues. Anti-phosphotyrosine antibodies present on acceptor beads bind to phosphorylated substrate, thus bringing the donor & acceptor beads into close proximity. Subsequent excitation of the donor beads at 680 nm generated singlet oxygen species that interact with a chemiluminescer on the acceptor beads, leading to light emission at 520-620 nm. The signal intensity is directly proportional to the level of substrate phosphorylation and thus inhibition is measured by a decrease in signal.
Assay plates were then incubated at room temperature for 1 hr. […] The plates were sealed under natural lighting conditions, wrapped in aluminium foil and incubated in the dark for a further 20 hrs.
The resulting assay signal was determined on the Perkin Elmer EnVision plate reader. The minimum value was subtracted from all values, and the signal plotted against compound concentration to generate IC50 data.
(In general: In Alpha technology, singlet oxygen from a donor bead excites a nearby acceptor bead.)
Turning to `COc1ccc(NC(C)=O)c(N(C)c2ccnc(Nc3cc(N4CCOCC4)cc(S(C)(=O)=O)c3)n2)c1` [Example 13.2, N-[4-methoxy-2-[methyl-[2-[(3-methylsulfonyl-5-morpholin-4-yl-phenyl)amino]pyrimidin-4-yl]amino]phenyl]acetamide], the IC50 came to 426 nM.
Under `Cc1ccc(CO)cc1N(C)c1ccnc(Nc2cc(C#N)cc(N3CCOCC3)c2)n1` [Example 7.15, 3-[[4-[[5-(hydroxymethyl)-2-methyl-phenyl]-methyl-amino]pyrimidin-2-yl]amino]-5-morpholin-4-yl-benzonitrile] stands 195 nM.
With `C[C@H](O)CN(C)C(=O)c1cc(Nc2nccc(N(C)c3cccc(Cl)c3)n2)cc(N2CCOCC2)c1` [Example 19.5, 3-[[4-[(3-chlorophenyl)-methyl-amino]pyrimidin-2-yl]amino]-N-[(2S)-2-hydroxypropyl]-N-methyl-5-morpholin-4-yl-benzamide], the half-maximal inhibitory concentration (IC50) stood at 181 nM.
Under `Cc1ccc(CO)cc1N(C)c1ccnc(Nc2cc(OCC(C)C)cc(N3CCOCC3)c2)n1` [Example 17.3, [4-methyl-3-[methyl-[2-[[3-(2-methylpropoxy)-5-morpholin-4-yl-phenyl]amino]pyrimidin-4-yl]amino]phenyl]methanol] stands 1910 nM; under `COc1ccc(C)c(N(c2ccnc(Nc3cc(N4CCOCC4)cc(N4CCOCC4)c3)n2)C(C)C)c1` [Example 22.2, N-(3,5-dimorpholin-4-ylphenyl)-N′-(5-methoxy-2-methyl-phenyl)-N′-propan-2-yl-pyrimidine-2,4-diamine], 1860 nM; under `Cc1ccc(CO)cc1N(C)c1ccnc(Nc2cc(OCC3CC3)cc(N3CCOCC3)c2)n1` [Example 17.4], 1090 nM.
Take `C[C@H](CO)NC(=O)c1cc(Nc2nccc(N(C)c3cccc(Cl)c3)n2)cc(N2CCOCC2)c1` [Example 19.23, 3-[[4-[(3-chlorophenyl)-methyl-amino]pyrimidin-2-yl]amino]-N-[(2R)-1-hydroxypropan-2-yl]-5-morpholin-4-yl-benzamide]: the half-maximal inhibitory concentration (IC50) was found to be 1310 nM.
The same measure for `Cc1ccc(CO)cc1N(C)c1ccnc(Nc2cc(N3CCOCC3)cc(N3CCOC[C@H]3C)c2)n1` [Example 7.18, (R)-(4-methyl-3-(methyl(2-(3-(3-methylmorpholino)-5-morpholinophenyl-amino)pyrimidin-4-yl)amino)phenyl)methanol]: 6.45 nM; for `COc1ccc(C)c(N(C)c2ccnc(Nc3cc(N4CCOCC4)cc(S(C)(=O)=O)c3)n2)c1` [Example 12.2, N′-(5-methoxy-2-methyl-phenyl)-N′-methyl-N-(3-methylsulfonyl-5-morpholin-4-yl-phenyl)pyrimidine-2,4-diamine]: 29.4 nM.
Regarding `CN(c1ccnc(Nc2cc(CN3CCOCC3)cc(N3CCOCC3)c2)n1)c1ccc(F)c(Cl)c1F` [Example 2.16, N′-(3-chloro-2,4-difluoro-phenyl)-N′-methyl-N-[3-morpholin-4-yl-5-(morpholin-4-ylmethyl)phenyl]py-rimidine-2,4-diamine], the IC50 stood at 307 nM.
Take `COc1ccc(NC(C)=O)c(N(C)c2ccnc(Nc3cc(N4CCOCC4)cc(N4CCOCC4)c3)n2)c1` [Example 13.1, N-[2-[[2-[(3,5-dimorpholin-4-ylphenyl)amino]pyrimidin-4-yl]-methyl-amino]-4-methoxy-phenyl]acetamide]: the IC50 amounted to 470 nM.
Consider `Cc1ccc(Cl)c(N(C)c2ccnc(Nc3cc(N4CCOCC4)cc(N4CCOCC4)c3)n2)c1` [Example 15.18, N′-(2-chloro-5-methyl-phenyl)-N-(3,5-dimorpholin-4-ylphenyl)-N′-methyl-pyrimidine-2,4-diamine], for which the IC50 was 1390 nM.
Under `Cc1ccc(CO)cc1N(CCO)c1ccnc(Nc2cc(N3CCOCC3)cc(N3CCOCC3)c2)n1` [Example 21.3] stands 25 nM; under `COc1ccc(N(C)c2ccnc(Nc3cc(N4CCOCC4)cc(N4CCOCC4)c3)n2)cc1Cl` [Example 15.14, N′-(3-chloro-4-methoxy-phenyl)-N-(3,5-dimorpholin-4-ylphenyl)-N′-methyl-pyrimidine-2,4-diamine], 500 nM.
The same measure for `CCNC(=O)c1cc(Nc2nccc(N(C)c3cccc(Cl)c3)n2)cc(N2CCOCC2)c1` [Example 19.25, 3-[[4-[(3-chlorophenyl)-methylamino]pyrimidin-2-yl]amino]-N-ethyl-5-morpholin-4-ylbenzamide]: 875 nM; for `Cc1ccc(CO)cc1N(C)c1ccnc(Nc2cc(N3CCOCC3)cc(N3CCOC[C@@H]3C)c2)n1` [Example 7.17, (S)-(4-methyl-3-(methyl(2-(3-(3-methylmorpholino)-5-morpholinophenyl-amino)pyrimidin-4-yl)amino)phenyl)methanol]: 3.13 nM; for `CN(c1ccc(F)c(F)c1)c1ccnc(Nc2cc(N3CCOCC3)cc(N3CCOCC3)c2)n1` [Example 15.7, N′-(3,4-difluorophenyl)-N-(3,5-dimorpholin-4-ylphenyl)-N′-methyl-pyrimidine-2,4-diamine]: 707 nM.
Regarding `COc1ccc(F)c(N(C)c2ccnc(Nc3cc(N4CCOCC4)cc(N4CCOCC4)c3)n2)c1` [Example 25.6, N2-(3,5-dimorpholinophenyl)-N4-(2-fluoro-5-methoxyphenyl)-N4-methylpyrimidine-2,4-diamine], the IC50 worked out at 7.88 nM.
Under `COCC(C)NC(=O)c1cc(Nc2nccc(N(C)c3cccc(Cl)c3)n2)cc(N2CCOCC2)c1` (stereo not drawn) [Example 19.15, 3-[[4-[(3-chlorophenyl)-methyl-amino]pyrimidin-2-yl]amino]-N-(1-methoxypropan-2-yl)-5-morpholin-4-yl-benzamide] stands 1100 nM; under `CCN(c1ccnc(Nc2cc(N3CCOCC3)cc(S(C)(=O)=O)c2)n1)c1cc(CO)ccc1C` [Example 8.1, [3-[ethyl-[2-[(3-methylsulfonyl-5-morpholin-4-yl-phenyl)amino]pyrimidin-4-yl]amino]-4-methyl-phenyl]methanol], 414 nM; under `COc1cc(OC)cc(N(C)c2ccnc(Nc3cc(N4CCOCC4)cc(N4CCOCC4)c3)n2)c1` [Example 15.5, N′-(3,5-dimethoxyphenyl)-N-(3,5-dimorpholin-4-ylphenyl)-N′-methyl-pyrimidine-2,4-diamine], 1120 nM.
The same measure for `COc1cc(N(C)c2ccnc(Nc3cc(N4CCOCC4)cc(N4CCOCC4)c3)n2)ccc1C` [Example 15.10, N-(3,5-dimorpholin-4-ylphenyl)-N′-(3-methoxy-4-methyl-phenyl)-N′-methyl-pyrimidine-2,4-diamine]: 7730 nM.
Under `Cc1ccc(CO)cc1N(C)c1ccnc(Nc2cc(N3CCOCC3)cc(N3CCOCC3=O)c2)n1` [Example 7.16, 4-[3-[[4-[[5-(hydroxymethyl)-2-methyl-phenyl]-methyl-amino]pyrimidin-2-yl]amino]-5-morpholin-4-yl-phenyl]morpholin-3-one] stands 22.2 nM; under `Cc1cc(C)cc(N(C)c2ccnc(Nc3cc(N4CCOCC4)cc(N4CCOCC4)c3)n2)c1` [Example 10.8, N′-(3,5-dimethylphenyl)-N-(3,5-dimorpholin-4-ylphenyl)-N′-methyl-pyrimidine-2,4-diamine], 1100 nM; under `CN(CCCO)C(=O)c1cc(Nc2nccc(N(C)c3cccc(Cl)c3)n2)cc(N2CCOCC2)c1` [Example 19.4, 3-[[4-[(3-chlorophenyl)-methyl-amino]pyrimidin-2-yl]amino]-N-(3-hydroxypropyl)-N-methyl-5-morpholin-4-yl-benzamide], 295 nM.
On to `Cc1ccc(CO)cc1N(C)c1ccnc(Nc2cc(O[C@H]3CCOC3)cc(N3CCOCC3)c2)n1` [Example 17.9, [4-methyl-3-[methyl-[2-[[3-morpholin-4-yl-5-[(3S)-oxolan-3-yl]oxyphenyl]ami-no]pyrimidin-4-yl]amino]phenyl]methanol], for which the IC50 was 443 nM.
As for `CN(c1ccnc(Nc2cc(C#N)cc(N3CCOCC3)c2)n1)c1ccc(F)c(Cl)c1F` [Example 2.5, 3-[[4-[(3-chloro-2,4-difluoro-phenyl)-methyl-amino]pyrimidin-2-yl]amino]-5-morpholin-4-yl-benzonitrile], the half-maximal inhibitory concentration (IC50) turned out to be 937 nM.
Under `CN(c1ccc(F)c(Cl)c1)c1ccnc(Nc2cc(N3CCOCC3)cc(N3CCOCC3)c2)n1` [Example 15.22, N′-(4-fluoro-3-chloro-phenyl)-N-(3,5-dimorpholin-4-ylphenyl)-N′-methyl-pyrimidine-2,4-diamine] stands 316 nM; under `Cc1cccc(Cl)c1N(C)c1ccnc(Nc2cc(N3CCOCC3)cc(N3CCOCC3)c2)n1` [Example 15.20, N′-(2-chloro-6-methyl-phenyl)-N-(3,5-dimorpholin-4-ylphenyl)-N′-methyl-pyrimidine-2,4-diamine], 1750 nM.
Turning to `Cc1ccc(N(C)c2ccnc(Nc3cc(N4CCOCC4)cc(N4CCOCC4)c3)n2)cc1` [Example 10.1, N-(3,5-dimorpholin-4-ylphenyl)-N′-methyl-N′-(4-methylphenyl)pyrimidine-2,4-diamine], the IC50 was 402 nM.

For the origin of these results see US20080242663A1, “NOVEL PYRIMIDINE DERIVATIVES 698” (ASTRAZENECA AB, priority 2007, published 2008).
